Measured values published in ChEMBL document CHEMBL3832761, “MMV Pathogen Box Bioactivity Data” (2017).

Columns and labels:
[1] = HL60 CC50 (uM) Cytotoxicity; type: functional; details: HL-60
HepG2 [2] = test: Cytotoxicity data HepG2 CC20 (uM); type: functional
Cryptosporidium parvum [3] = test: AntiCryptosporidium parvum activity Compounds added at t0, IC 50 (uM); type: functional, organism-based
Cryptosporidium parvum [4] = test: AntiCryptosporidium parvum activity Compounds added 3h after t0, IC 50 (uM); type: functional, organism-based
Leishmania infantum = test: AntiLeishmania activity L. infantum (macrophages) IC50 (uM); type: functional, organism-based
MRC5 = test: MRC5 CC50 (uM) Cytotoxicity; type: functional; details: Homo sapiens
Leishmania = test: AntiLeishmania activity Toxicity on infected PMM (uM); type: functional
Trypanosoma cruzi = test: AntiTrypanosoma cruzi activity IC50 (uM); type: functional, organism-based
Trypanosoma brucei [5] = test: AntiTrypanosoma brucei activity T. b. rhodesiense IC50 (uM); type: functional, organism-based
L6 = test: L6 CC50 (uM) Cytotoxicity; type: functional; details: Rattus norvegicus
Leishmania donovani [6] = test: AntiLeishmania activity L. donovani (macrophages) IC50 (uM); type: functional, organism-based
[7] = PMM CC50 (uM) Cytotoxicity; type: functional; details: Macrophage
Trypanosoma brucei [8] = test: AntiTrypanosoma brucei activity T. b. brucei IC50 (uM); type: functional, organism-based
Leishmania donovani [9] = test: AntiLeishmania activity L. donovani (axenic) IC50 (uM); type: functional, organism-based
Toxoplasma gondii [10] = test: AntiToxoplasma gondii activity data 2-day killing assay: inhibition at 10 uM (%) Experiment D; type: functional
Toxoplasma gondii [11] = test: AntiToxoplasma gondii activity data 2-day killing assay: IC50 (uM), Experiment F; type: functional, organism-based; details: Toxoplasma gondii, 48 h; read-out: IC50
Toxoplasma gondii [12] = test: AntiToxoplasma gondii activity data 2-day killing assay: inhibition at 10 uM (%) Experiment E; type: functional
Toxoplasma gondii [13] = test: AntiToxoplasma gondii activity data Inhibition of plaque forming efficiency (%) Experiment A; type: functional; set-up: concentration or dose not given beside the values
Toxoplasma gondii [14] = test: AntiToxoplasma gondii activity data 2-day killing assay: inhibition at 10 uM (%) Experiment C; type: functional; details: 48 h
Toxoplasma gondii [15] = test: AntiToxoplasma gondii activity data 2-day killing assay: IC50 (uM), Experiment G; type: functional, organism-based
Plasmodium falciparum [16] = test: Antimalarial activity: Gametocytes Plasmodium falciparum NF54 Gametocytes Stage V: inhibition at 10 uM (%); type: functional
Plasmodium falciparum [17] = test: Antimalarial activity: Asexual Blood Stage Plasmodium falciparum W2 IC50 (uM); type: functional, organism-based
HepG2 [18] = test: HepG2 CC50 (uM) Cytotoxicity; type: functional; details: Homo sapiens
Plasmodium falciparum [19] = test: Antimalarial activity: Gametocytes Plasmodium falciparum NF54 Gametocytes Stage V IC50 (uM); type: functional, organism-based
Plasmodium falciparum [20] = test: Antimalarial activity: Asexual Blood Stage Plasmodium falciparum Dd2 IC50 (uM); type: functional, organism-based
Plasmodium berghei [21] = test: Antimalarial activity: Liver Stage Plasmodium berghei sporozoite Luciferase assay: inhibition at 10 uM (%); type: functional
Plasmodium berghei [22] = test: Antimalarial activity: Liver Stage Plasmodium berghei sporozoite Luciferase assay IC50 (uM); type: functional, organism-based
Plasmodium falciparum [23] = test: Antimalarial activity: Asexual Blood Stage Plasmodium falciparum 3D7 IC50 (uM); type: functional, organism-based
Schistosoma mansoni [24] = test: AntiSchistosoma mansoni activity Juveniles IC50 (uM); type: functional, organism-based
Schistosoma mansoni [25] = test: AntiSchistosoma mansoni activity Newly Transformed Schistosomula: inhibition at 10 uM at 72h (%); type: functional
Schistosoma mansoni [26] = test: AntiSchistosoma mansoni activity Adults IC50 (uM); type: functional, organism-based

With `Clc1ccc(-n2cc(COc3ccnc4ccccc34)nn2)cc1` the CC50 [1] was > 50 µM, the CC20 (HepG2 [2]) was 13.6 µM and the IC50 (Cryptosporidium parvum [3]) was > 5 µM. It also gave an IC50 (Cryptosporidium parvum [4]) of 1.51 µM.

For `COc1ccc(-c2nn(C(C)C)c3ncnc(N)c23)cc1OC`, the CC50 [1] was 25.1 µM, the CC20 (HepG2 [2]) was 1.63 µM and the IC50 (Cryptosporidium parvum [3]) was 0.5 µM. For the same compound, the IC50 (Cryptosporidium parvum [4]) was 13.9 µM.

In the case of `COC(=O)c1cccc2oc(-c3cccc(OC)c3NC(=O)c3cc(-c4ccccc4)on3)nc12`, the IC50 (Leishmania infantum) is reported as > 32 µM, the CC50 (MRC5) is reported as > 32 µM and the “Toxicity on infected macrophages” value (Leishmania) is reported as >30 µM. For the same compound, the IC50 (Trypanosoma cruzi) was > 32 µM, the CC20 (HepG2 [2]) was >80 µM and the IC50 (Trypanosoma brucei [5]) was > 32 µM. The CC50 (L6) was 50 µM, the IC50 (Leishmania donovani [6]) was > 30 µM and the CC50 [7] was > 32 µM. The IC50 (Trypanosoma brucei [8]) was > 32 µM and the IC50 (Leishmania donovani [9]) was 3.95 µM.

In the case of `Cc1nc(-c2ccccn2)nc(N(C)CCc2ccccc2)c1Cl`, the IC50 (Leishmania infantum) is reported as 4.06 µM, the CC50 (MRC5) is reported as 21.7 µM and the “Toxicity on infected macrophages” value (Leishmania) is reported as 16.7 µM. For the same compound, the IC50 (Trypanosoma cruzi) was 0.88 µM, the CC20 (HepG2 [2]) was 11.3 µM and the IC50 (Trypanosoma brucei [5]) was 11.8 µM. It also gave a CC50 (L6) of 9.6 µM, an IC50 (Leishmania donovani [6]) of 2.6 µM and a CC50 [7] of 4 µM. For the same compound, the IC50 (Trypanosoma brucei [8]) was 14.9 µM and the IC50 (Leishmania donovani [9]) was 0.02 µM.

With `O=C(OCc1ccccc1)N1CCC(c2cc(-c3ccncc3)c(-c3ccc(F)cc3)[nH]2)CC1` the Inhibition (Toxoplasma gondii [10]) was 76.8%, the CC50 [1] was > 50 µM and the IC50 (Toxoplasma gondii [11]) was 0.87 µM. It also gave an Inhibition (Toxoplasma gondii [12]) of 99.1%, an Inhibition (Toxoplasma gondii [13]) of ~75% and an inhibition at 10 µM (Toxoplasma gondii [14]) of 77%.

With `Nc1nc(N)c2c3c(sc2n1)CN(Cc1ccccc1)CC3` the Inhibition (Toxoplasma gondii [10]) was 83.2%, the CC50 [1] was > 50 µM and the IC50 (Toxoplasma gondii [11]) was 7.06 µM. For the same compound, the Inhibition (Toxoplasma gondii [12]) was 81.6%, the IC50 (Toxoplasma gondii [15]) was “no inhibition” and the Inhibition (Toxoplasma gondii [13]) was 100%. It also gave an inhibition at 10 µM (Toxoplasma gondii [14]) of 54.2%.

With `CC(C)(C)n1nc(-c2ccccc2)c2c(N)ncnc21` the Inhibition (Toxoplasma gondii [10]) was 100%, the CC50 [1] was > 25 µM and the IC50 (Toxoplasma gondii [11]) was 1.1 µM. It also gave an Inhibition (Toxoplasma gondii [12]) of 97.5%, an Inhibition (Toxoplasma gondii [13]) of 100% and an inhibition at 10 µM (Toxoplasma gondii [14]) of 96.5%.

For `CC(C)(C)n1nc(Cc2ccc(F)c(Cl)c2)c2c(N)ncnc21`, the Inhibition (Toxoplasma gondii [10]) was 100%, the CC50 [1] was > 25 µM and the IC50 (Toxoplasma gondii [11]) was 1.7 µM. The Inhibition (Toxoplasma gondii [12]) was 95.5%, the Inhibition (Toxoplasma gondii [13]) was 100% and the inhibition at 10 µM (Toxoplasma gondii [14]) was 98.3%.

`CCOc1ccc2cc(-c3nn(C(C)(C)C)c(N)c3C(N)=O)cnc2c1` showed an IC50 (Cryptosporidium parvum [3]) of 0.05 µM.

In the case of `CC(C)n1nc(-c2cc3c(Cl)cccc3[nH]2)c2c(N)ncnc21`, the Inhibition (Toxoplasma gondii [10]) is reported as 100%, the CC50 [1] is reported as > 25 µM and the IC50 (Toxoplasma gondii [11]) is reported as 0.16 µM. The Inhibition (Toxoplasma gondii [12]) was 99.5%, the Inhibition (Toxoplasma gondii [13]) was 100% and the inhibition at 10 µM (Toxoplasma gondii [14]) was 99.6%.

Compound `COc1ccc(-c2cnc3ccc(NCc4ccc(S(N)(=O)=O)cc4)nn23)cn1` has an Inhibition (Plasmodium falciparum [16]) of 82%, an IC50 (Plasmodium falciparum [17]) of 0.71 µM and a CC20 (HepG2 [2]) of 3.29 µM. For the same compound, the CC50 (HepG2 [18]) was > 10 µM, the IC50 (Plasmodium falciparum [19]) was 1.03 µM and the IC50 (Plasmodium falciparum [20]) was 0.81 µM. For the same compound, the Inhibition (Plasmodium berghei [21]) was 100%, the IC50 (Plasmodium berghei [22]) was 6.8 µM and the IC50 (Plasmodium falciparum [23]) was 0.49 µM.

For `Clc1cccc(CO[C@H]2CCc3ccccc3[C@@H]2n2ccnn2)c1`, the IC50 (Leishmania infantum) was > 32 µM, the CC50 (MRC5) was > 32 µM and the “Toxicity on infected macrophages” value (Leishmania) was >30 µM. The IC50 (Trypanosoma cruzi) was 3.08 µM, the CC20 (HepG2 [2]) was >80 µM and the IC50 (Trypanosoma brucei [5]) was > 32 µM. For the same compound, the CC50 (L6) was 64 µM, the IC50 (Leishmania donovani [6]) was > 30 µM and the CC50 [7] was > 32 µM. The IC50 (Trypanosoma brucei [8]) was > 32 µM and the IC50 (Leishmania donovani [9]) was 6.6 µM.

For `Cc1cc(OCC(=O)Nc2ccc(C(C)C)cc2)n(C)c(=O)c1C#N`, the IC50 (Schistosoma mansoni [24]) was 3.88 µM, the Inhibition (Schistosoma mansoni [25]) was 13.3% and the CC20 (HepG2 [2]) was >80 µM. It also gave an IC50 (Schistosoma mansoni [26]) of 7.2 µM.

`Cc1ccc(NC(=O)c2nc[nH]c2C(=O)Nc2nc3ccccc3[nH]2)c(C)c1` gave an Inhibition (Plasmodium falciparum [16]) of 88%, an IC50 (Plasmodium falciparum [17]) of 0.32 µM and a CC20 (HepG2 [2]) of 8.43 µM. For the same compound, the CC50 (HepG2 [18]) was > 10 µM, the IC50 (Plasmodium falciparum [19]) was > 8.3 µM and the IC50 (Plasmodium falciparum [20]) was 0.23 µM. The Inhibition (Plasmodium berghei [21]) was 99%, the IC50 (Plasmodium berghei [22]) was > 10 µM and the IC50 (Plasmodium falciparum [23]) was 0.36 µM.

In the case of `CC(C)C(Oc1cccc2ccccc12)C(=O)O` (centres undefined), the CC50 [1] is reported as > 50 µM, the CC20 (HepG2 [2]) is reported as >80 µM and the IC50 (Cryptosporidium parvum [3]) is reported as > 10 µM. The IC50 (Cryptosporidium parvum [4]) was > 10 µM.

In the case of `N#CCN(CCCCN1CCN(c2ccc(F)cc2)CC1)C(=O)OCc1ccccc1`, the IC50 (Leishmania infantum) is reported as 25.4 µM, the CC50 (MRC5) is reported as > 32 µM and the Toxicity (Leishmania) is reported as >30 µM. For the same compound, the “Toxicity on infected macrophages” value (Leishmania) was >30 µM, the IC50 (Trypanosoma cruzi) was 4.62 µM and the IC50 (Trypanosoma brucei [5]) was 16.4 µM. For the same compound, the CC50 (L6) was 15.3 µM, the IC50 (Leishmania donovani [6]) was 22.2 µM and the CC50 [7] was > 32 µM. The IC50 (Trypanosoma brucei [8]) was 24.9 µM and the IC50 (Leishmania donovani [9]) was > 100 µM.

In the case of `COc1ccc(OC)c(NCc2ccc3nc(N)nc(N)c3c2Cl)c1`, the CC50 [1] is reported as > 25 µM, the CC20 (HepG2 [2]) is reported as 3.44 µM and the IC50 (Cryptosporidium parvum [3]) is reported as 0.1 µM. The IC50 (Cryptosporidium parvum [4]) was 3.98 µM.
